Columns and labels:
[1] = Drug metabolism in pig liver microsomes assessed as substrate inhibition of IRI-O-5-monoglucuronide formation incubated for 5 mins prior to UDPGA addition measured after 90 mins by Eadie-Hoftsee plot analysis; assay type: ADME, Sus scrofa
[2] = target: T1, UDP-glucuronosyltransferase 1A7 (Homo sapiens, UniProt Q9HAW7); assay: Drug metabolism assessed as human recombinant UGT1A7-mediated irilone-O-4'-monoglucuronide formation at 25 uM incubated for 5 mins prior to UDPGA addition measured after 90 mins by HPLC-DAD analysis; assay type: ADME; conditions: recombinant enzyme, 1.5 h
T1 sequence (Q9HAW7 whole entry): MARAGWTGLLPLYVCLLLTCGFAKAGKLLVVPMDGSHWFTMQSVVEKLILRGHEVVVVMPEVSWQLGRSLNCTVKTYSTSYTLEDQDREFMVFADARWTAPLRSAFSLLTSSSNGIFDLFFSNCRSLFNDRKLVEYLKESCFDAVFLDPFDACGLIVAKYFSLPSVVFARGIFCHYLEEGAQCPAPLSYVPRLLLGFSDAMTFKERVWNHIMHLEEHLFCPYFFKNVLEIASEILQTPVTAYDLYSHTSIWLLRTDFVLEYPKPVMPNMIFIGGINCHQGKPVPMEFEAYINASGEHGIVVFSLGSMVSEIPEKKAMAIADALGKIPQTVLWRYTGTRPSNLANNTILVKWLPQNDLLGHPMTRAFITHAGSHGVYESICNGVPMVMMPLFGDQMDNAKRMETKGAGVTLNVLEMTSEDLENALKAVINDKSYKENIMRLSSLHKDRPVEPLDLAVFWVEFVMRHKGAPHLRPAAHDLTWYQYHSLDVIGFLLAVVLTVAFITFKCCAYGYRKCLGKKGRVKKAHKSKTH

[3] = target: T2, UDP-glucuronosyltransferase 1A8 (Homo sapiens, UniProt Q9HAW9); assay: Substrate inhibition of human recombinant UGT1A8 assessed as IRI-O-5-monoglucuronide formation incubated for 5 mins prior to UDPGA addition measured after 90 mins by Eadie-Hoftsee plot analysis; assay type: ADME
T2 sequence (Q9HAW9 whole entry): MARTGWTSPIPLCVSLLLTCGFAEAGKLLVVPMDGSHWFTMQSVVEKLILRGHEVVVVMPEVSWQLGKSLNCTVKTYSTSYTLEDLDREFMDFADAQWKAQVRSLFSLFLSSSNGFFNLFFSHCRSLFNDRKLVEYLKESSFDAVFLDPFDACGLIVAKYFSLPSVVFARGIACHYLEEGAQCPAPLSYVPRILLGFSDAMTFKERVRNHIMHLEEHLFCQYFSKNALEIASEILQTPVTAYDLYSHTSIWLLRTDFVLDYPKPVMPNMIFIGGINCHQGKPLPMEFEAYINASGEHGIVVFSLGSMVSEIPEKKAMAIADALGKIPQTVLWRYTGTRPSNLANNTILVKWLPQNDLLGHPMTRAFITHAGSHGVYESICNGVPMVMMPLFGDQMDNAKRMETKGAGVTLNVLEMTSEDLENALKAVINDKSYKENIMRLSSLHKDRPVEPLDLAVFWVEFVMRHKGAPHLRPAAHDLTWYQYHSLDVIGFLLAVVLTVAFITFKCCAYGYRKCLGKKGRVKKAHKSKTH

[4] = target: T1, UDP-glucuronosyltransferase 1A7; assay: Substrate inhibition of human recombinant UGT1A7 assessed as IRI-O-5-monoglucuronide formation incubated for 5 mins prior to UDPGA addition measured after 90 mins by Eadie-Hoftsee plot analysis; assay type: ADME
Liver microsome [5] = assay: Drug metabolism in human liver microsomes assessed as IRI-O-5-monoglucuronide formation incubated for 5 mins prior to UDPGA addition measured after 90 mins by Eadie-Hoftsee plot analysis; assay type: ADME; conditions: 1.5 h
Liver microsome [6] = assay: Drug metabolism in Sprague-Dawley rat liver microsomes assessed as substrate inhibition of IRI-O-4'-monoglucuronide formation incubated for 5 mins prior to UDPGA addition measured after 90 mins by Eadie-Hoftsee plot analysis; assay type: ADME
[7] = target: T3, UDP-glucuronosyltransferase 1A1 (Homo sapiens, UniProt P22309); assay: Substrate inhibition of human recombinant UGT1A1 assessed as IRI-O-4'-monoglucuronide formation incubated for 5 mins prior to UDPGA addition measured after 90 mins by Eadie-Hoftsee plot analysis; assay type: ADME
T3 sequence (P22309 whole entry): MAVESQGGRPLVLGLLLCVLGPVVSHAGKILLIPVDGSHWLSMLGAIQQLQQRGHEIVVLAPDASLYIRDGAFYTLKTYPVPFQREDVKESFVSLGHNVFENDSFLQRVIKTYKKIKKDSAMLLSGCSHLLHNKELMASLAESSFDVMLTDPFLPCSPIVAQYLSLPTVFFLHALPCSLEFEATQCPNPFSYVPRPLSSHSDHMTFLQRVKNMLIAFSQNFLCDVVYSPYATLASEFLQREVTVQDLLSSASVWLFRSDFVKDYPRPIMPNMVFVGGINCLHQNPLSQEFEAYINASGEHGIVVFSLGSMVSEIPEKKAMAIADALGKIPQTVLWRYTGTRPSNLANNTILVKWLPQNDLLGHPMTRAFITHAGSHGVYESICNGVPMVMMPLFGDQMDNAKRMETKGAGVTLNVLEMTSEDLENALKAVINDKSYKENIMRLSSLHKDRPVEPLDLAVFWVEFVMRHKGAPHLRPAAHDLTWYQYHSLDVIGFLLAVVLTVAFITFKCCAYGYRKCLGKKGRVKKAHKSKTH

Liver microsome [8] = assay: Drug metabolism in human liver microsomes assessed as substrate inhibition of IRI-O-5-monoglucuronide formation incubated for 5 mins prior to UDPGA addition measured after 90 mins by Eadie-Hoftsee plot analysis; assay type: ADME
[9] = Drug metabolism in pig liver microsomes assessed as IRI-O-5-monoglucuronide formation incubated for 5 mins prior to UDPGA addition measured after 90 mins by Eadie-Hoftsee plot analysis; assay type: ADME, Sus scrofa; conditions: 1.5 h
[10] = target: T4, UDP-glucuronosyltransferase 1A9 (Homo sapiens, UniProt O60656); assay: Substrate inhibition of human recombinant UGT1A9 assessed as IRI-O-5-monoglucuronide formation incubated for 5 mins prior to UDPGA addition measured after 90 mins by Eadie-Hoftsee plot analysis; assay type: ADME
T4 sequence (O60656 whole entry): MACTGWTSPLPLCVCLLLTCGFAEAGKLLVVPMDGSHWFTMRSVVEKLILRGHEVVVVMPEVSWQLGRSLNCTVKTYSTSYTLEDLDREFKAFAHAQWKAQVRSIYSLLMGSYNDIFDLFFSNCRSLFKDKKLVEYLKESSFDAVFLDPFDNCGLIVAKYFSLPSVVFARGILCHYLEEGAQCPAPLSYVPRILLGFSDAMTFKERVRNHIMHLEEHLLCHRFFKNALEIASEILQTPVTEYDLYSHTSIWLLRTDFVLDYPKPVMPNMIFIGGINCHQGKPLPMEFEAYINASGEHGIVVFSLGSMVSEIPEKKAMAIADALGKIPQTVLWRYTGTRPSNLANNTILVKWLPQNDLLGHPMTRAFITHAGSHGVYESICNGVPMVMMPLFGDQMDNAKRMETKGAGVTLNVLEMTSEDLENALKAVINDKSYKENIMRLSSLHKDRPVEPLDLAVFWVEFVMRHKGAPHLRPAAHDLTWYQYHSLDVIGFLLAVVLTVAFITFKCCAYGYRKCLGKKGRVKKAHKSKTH

Liver microsome [11] = assay: Drug metabolism in Sprague-Dawley rat liver microsomes assessed as IRI-O-4'-monoglucuronide formation incubated for 5 mins prior to UDPGA addition measured after 90 mins by Eadie-Hoftsee plot analysis; assay type: ADME; conditions: 1.5 h

- Ki [1]: 183 µM
- Drug metabolism [2]: metabolite_detected
- Ki [3]: 22.6 µM
- Ki [4]: 101 µM
- Km (Liver microsome [5]): 9.8 µM
- Vmax (Liver microsome [5]): 0.43 nmol/mg/min
- Ki (Liver microsome [6]): 44.7 µM
- Ki [7]: 14.1 µM
- Ki (Liver microsome [8]): 96.9 µM
- Km [9]: 16.8 µM
- Vmax [9]: 0.28 nmol/mg/min
- Ki [10]: 534 µM
- Km (Liver microsome [11]): 124 µM
- Vmax (Liver microsome [11]): 1.33 nmol/mg/min
Structure (SMILES): O=c1c(-c2ccc(O)cc2)coc2cc3c(c(O)c12)OCO3

— ChEMBL document CHEMBL3525955, “Glucuronidation of the red clover isoflavone irilone by liver microsomes from different species and human UDP-glucuronosyltransferases” (Drug Metab Dispos, 2011)
